Laboratory results as given in patent US20160101072A1, “Therapeutic uses of enzyme inhibitors” (Proximagen Limited, priority 2013, published 2016).
Marks after values point to notes of the source that are not given here.

Columns and labels:
[1] = test system: lymphoid CD4+CD8- T cells; test: Cell sorting: recruitment of lymphoid CD4+CD8- T cells into muscles of mdx mice; assay type: in vivo, mouse; details: mdx mice muscle
From the text: (§1) In this example, labelled antibodies were used to assess infiltration of inflammatory myeloid and lymphoid cells into muscles of mdx mice following treatment of the mice with different doses of the glucocorticoid prednisolone, and the VAP-1 inhibitors carbidopa and benserazide. CD11b is a transmembrane glycoprotein which is expressed on the surface of granulocytes (including neutrophils and eosinophils), monocytes, NK cells, dendritic cells, tissue macrophages and subsets of T and B cells. Labelled antibody to CD11b was used to assess infiltration of inflammatory myeloid cells into muscles of mdx mice. Labelled antibody to Ly6C was used to assess infiltration of pro- and anti-inflammatory monocytes into muscles of mdx mice. Labelled antibody to CD4 and CD8a antigen was used to assess infiltration of Th cells (CD4^+CD8^-) and double negative (CD4^-CD8^-) T cells into muscles of mdx mice. A total of a ninety C57BU10ScSn-Dmdmdx/J male mice, 3 weeks of age (+/-3days), were transferred to the in vivo research laboratory in Bar Harbor, Me. Additional ten […] male mice 3 weeks of age (+/-3 days) were also transferred and served as a wild-type control group. The mice were ear notched for identification and housed in ventilated polysulfone cages with HEPA filtered air at a density of 3-4 mice per cage. The animal room was lit entirely with artificial fluorescent lighting on controlled 12 hour light/dark cycle (6 a.m. to 6 p.m. light). […] The animal room was set for 15 air exchanges per hour. Filtered tap water acidified to a pH of 2.8 to 3.2 was provided ad libitum. […] Prior to study initiation, mice were acclimated for 3 days. Mice were tested for grip strength and in the open field at ages 25 and 26 days, and drug regimen was initiated at age 27 days. Mice were monitored twice weekly for clinical observations and body weights. […] 24 hours after the second open field tests, blood was collected by retro-orbital bleeding, and mice were humanely euthanized by CO2 asphyxiation. One triceps surae was collected fresh and processed for immune cell sorting, one tibialis anterior was preserved in RNALater for RNA extraction, one whole hind limb and the diaphragm were fixed in 2% paraformaldehyde overnight at 4° C. for paraffin embedding and histology stains. For immune cell sorting, muscle samples were enzymatically and mechanically dissociated following manufacturer instructions (Skeletal Muscle Dissociation KitCatalog no. 130-098-305, Miltenyi Biotec). Cells were stained with the following antibodies: [table] Stained cells were analyzed on a BD LSR II cytometer and counts of different populations were expressed in percentage of the number of live cells counted.

[2] = test system: CD11b+ myeloid cells; test: Cell sorting: recruitment of CD11b+ myeloid cells into muscles of mdx mice; assay type: in vivo, mouse; details: mdx mice muscle; for % change compared to vehicle (CD11b+ myeloid cells) / % of viable cells (CD11b+ myeloid cells): 4 weeks
From the text: as §1

[3] = test system: CD11b+Ly6Chigh profibrotic : CD11b+Ly6Clow anti-fibrotic myeloid cells; test: Ratio of profibrotic to anti-fibrotic myeloid cells in mdx mouse muscle; assay type: in vivo; details: both doses
From the text: In this example, labelled antibodies were used to assess infiltration of inflammatory myeloid and lymphoid cells into muscles of mdx mice following treatment of the mice with different doses of the glucocorticoid prednisolone, and the VAP-1 inhibitors carbidopa and benserazide. […] Labelled antibody to CD11b was used to assess infiltration of inflammatory myeloid cells into muscles of mdx mice. Labelled antibody to Ly6C was used to assess infiltration of pro- and anti-inflammatory monocytes into muscles of mdx mice. Labelled antibody to CD4 and CD8a antigen was used to assess infiltration of Th cells (CD4^+CD8^−) and double negative (CD4^−CD8^−) T cells into muscles of mdx mice.
A total of a ninety C57BU10ScSn-Dmdmdx/J male mice, 3 weeks of age (+/−3days), were transferred to the in vivo research laboratory in Bar Harbor, Me. Additional ten C57BU10ScSnJ male mice 3 weeks of age (+/−3 days) were also transferred and served as a wild-type control group. The mice were ear notched for identification and housed in ventilated polysulfone cages with HEPA filtered air at a density of 3-4 mice per cage. […]

[4] = test system: CD53 mRNA; test: mRNA quantification (RT PCR) of CD53 in muscles of mdx mice; assay type: in vivo, mouse
From the text: (§2) A total of a ninety C57BU10ScSn-Dmdmdx/J male mice, 3 weeks of age (+/-3days), were transferred to the in vivo research laboratory in Bar Harbor, Me. Additional ten […] male mice 3 weeks of age (+/-3 days) were also transferred and served as a wild-type control group. The mice were ear notched for identification and housed in ventilated polysulfone cages with HEPA filtered air at a density of 3-4 mice per cage. The animal room was lit entirely with artificial fluorescent lighting on controlled 12 hour light/dark cycle (6 a.m. to 6 p.m. light). […] The animal room was set for 15 air exchanges per hour. Filtered tap water acidified to a pH of 2.8 to 3.2 was provided ad libitum. […] Prior to study initiation, mice were acclimated for 3 days. Mice were tested for grip strength and in the open field at ages 25 and 26 days, and drug regimen was initiated at age 27 days. Mice were monitored twice weekly for clinical observations and body weights. […] 24 hours after the second open field tests, blood was collected by retro-orbital bleeding, and mice were humanely euthanized by CO2 asphyxiation. One triceps surae was collected fresh and processed for immune cell sorting, one tibialis anterior was preserved in RNALater for RNA extraction, one whole hind limb and the diaphragm were fixed in 2% paraformaldehyde overnight at 4° C. for paraffin embedding and histology stains. Total RNAs were extracted with a modification of the Trizol method, reverse transcribed, and mRNAs of TGFβ, and the following inflammation markers were quantified by the SYBR green method with GAPDH as a normalizer: […]

[5] = test system: CD11b mRNA; test: mRNA quantification (RT PCR) of CD11b in muscles of mdx mice; assay type: in vivo, mouse
From the text: as §2

[6] = test system: TNF mRNA; test: mRNA quantification (RT PCR) of TNF in muscles of mdx mice; assay type: in vivo, mouse
From the text: as §2

[7] = test system: lymphoid CD4-CD8- (double negative, DN) T cells; test: Cell sorting: recruitment of lymphoid CD4-CD8- (double negative, DN) T cells into muscles of mdx mice; assay type: in vivo, mouse; details: mdx mice muscle
From the text: as §1

[8] = test system: Ly6C1 mRNA; test: mRNA quantification (RT PCR) of Ly6C1 in muscles of mdx mice; assay type: in vivo, mouse; details: mdx mice muscle
From the text: as §2

[9] = test system: CD48 mRNA; test: mRNA quantification (RT PCR) of CD48 in muscles of mdx mice; assay type: in vivo, mouse
From the text: as §2

[10] = test system: TGFβ mRNA; test: mRNA quantification (RT PCR) of pro-fibrotic growth factor TGFβ in muscles of mdx mice; assay type: in vivo, mouse
From the text: as §2

[11] = test system: CD11b+Ly6Chigh profibrotic myeloid cells (Ly6C+ monocytes); test: Cell sorting: recruitment of CD11b+Ly6Chigh profibrotic myeloid cells into muscles of mdx mice; assay type: in vivo, mouse; details: mdx mice muscle; for % change compared to vehicle (CD11b+Ly6Chigh profibrotic myeloid cells) / % of viable cells (CD11b+Ly6Chigh profibrotic myeloid cells): 4 weeks
From the text: as §1

[12] = test system: Mpeg1 mRNA; test: mRNA quantification (RT PCR) of Mpeg1 in muscles of mdx mice; assay type: in vivo, mouse; details: mdx mice muscle
From the text: as §2

[13] = test system: Lgals3 mRNA; test: mRNA quantification (RT PCR) of Lgals3 in muscles of mdx mice; assay type: in vivo, mouse
From the text: as §2

[14] = test system: diaphragms of mdx mice; test: H & E staining of diaphragm sections of mdx mice (inflammatory infiltrates); assay type: in vivo, mouse; details: 20 mg/kg po once per day, 6 weeks, 12 week old mdx mice
From the text: (§3) The most studied animal model for DMD is the mdx mouse. This was first described by Bulfield et al (Proc. Natl. Acad. Sci. USA, 1984, 81:1189-1192). It has a point mutation within its dystrophin gene, and as a result the mouse has no functional dystrophin in its muscles. […] As it ages, certain muscle types (including the diaphragm) show weakness and increased fibrosis. […] This provides a quantitative framework for studying the pathogenesis of dystrophy (Stedman et al, Nature, 1991, 352, 536-539).
(§4) 12 week old mdx mice were treated with benserazide (20 mg/kg, po, once per day) or vehicle (water, once per day), in groups of 8 mice. After 6 weeks of treatment, diaphragms of the mice were collected and flash frozen in liquid nitrogen-cooled isopentane. The sections were stored on slides at −20° C. until required.
(§5) Hematoxylin and eosin (H & E) staining was used to show cytoplasmic, nuclear, and extracellular matrix features. Hematoxylin stains nucleic acids, and eosin stains proteins nonspecifically. Staining of F4/80 antigen (a glycoprotein expressed by murine macrophages) was used to show macrophages.

[15] = test system: macrophages; test: Staining of murine F4/80 antigen in diaphragm sections of mdx mice (macrophage infiltration); assay type: in vivo, mouse; details: 20 mg/kg po once per day, 6 weeks, 12 week old mdx mice
From the text: as §3, §4, §5

[16] = test system: IL-6 mRNA; test: mRNA quantification (RT PCR) of IL-6 in muscles of mdx mice; assay type: in vivo, mouse; details: mdx mice muscle
From the text: as §2

[17] = test system: CD11b+Ly6Clow anti-fibrotic myeloid cells (Ly6C- monocytes); test: Cell sorting: recruitment of CD11b+Ly6Clow anti-fibrotic myeloid cells into muscles of mdx mice; assay type: in vivo, mouse; details: for % change compared to vehicle (CD11b+Ly6Clow anti-fibrotic myeloid cells) / % of viable cells (CD11b+Ly6Clow anti-fibrotic myeloid cells): 4 weeks, mdx mice muscle
From the text: as §1

[18] = test system: T cells; details: correlated with reduction in muscle necrosis and fibrosis; very early studies; cited from earlier work
[19] = test system: eosinophils; details: DMD / mdx dystrophic muscle, previous studies; cited from earlier work
[20] = doses as in the table (carbidopa 100, benserazide 20 mg/kg po twice/day; prednisolone 1 mg/kg ip once/day)
[21] = 20 mg/kg po twice/day, mdx mice muscle, GAPDH as normalizer
[22] = treatment alone, mdx mouse muscle

SMILES: NC(CO)C(=O)NNCc1ccc(O)c(O)c1O (stereo not drawn) [Benserazide]
- % change compared to vehicle (lymphoid CD4+CD8- T cells) ([1]; 20 mg/kg po twice/day, 4 weeks): −37.0%
- % of viable cells (lymphoid CD4+CD8- T cells) ([1]; 20 mg/kg po twice/day, 4 weeks): 9.2* %
- reduction of recruitment of lymphoid CD4+CD8- T cells compared with vehicle [1, 20]: over 50%
- % change compared to vehicle (CD11b+ myeloid cells) ([2]; 7 mg/kg po twice/day): −13.7%
- % of viable cells (CD11b+ myeloid cells) ([2]; 7 mg/kg po twice/day): 31.4%
- % change compared to vehicle (CD11b+ myeloid cells) ([2]; 20 mg/kg po twice/day): −32.4%
- % of viable cells (CD11b+ myeloid cells) ([2]; 20 mg/kg po twice/day): 24.6* %
- reduction of CD11b+ myeloid cell recruitment compared with vehicle ([2]; higher dose of benserazide): approximately one-third
- relative levels of pro- and anti-fibrotic myeloid cells [3]: not affected
- CD53 mRNA level [4, 21]: 0.95
- effect on the level of CD53 mRNA [4, 22]: not significantly affected
- CD11b mRNA level [5, 21]: 1.12
- effect on the level of CD11b mRNA [5, 22]: not significantly affected
- TNF mRNA level [6, 21]: 0.79
- effect on the level of TNF mRNA [6, 22]: No significant effect
- % change compared to vehicle (lymphoid CD4-CD8- DN T cells) ([7]; 20 mg/kg po twice/day, 4 weeks): −44.8%
- % of viable cells (lymphoid CD4-CD8- DN T cells) ([7]; 20 mg/kg po twice/day, 4 weeks): 18** %
- reduction of recruitment of lymphoid DN T cells compared with vehicle [7, 20]: over 50%
- effect on Ly6C1 mRNA level [8]: No effects
- CD48 mRNA level [9, 21]: 0.85
- effect on the level of CD48 mRNA [9, 22]: no significant effect
- % change compared to vehicle (TGFβ mRNA) ([10]; 20 mg/kg po twice/day, mdx mice muscle): −34.7%
- TGFβ mRNA [10, 21]: 0.79
- reduction of the TGFβ mRNA level (fraction in words) ([10]; treatment alone, muscle of mdx mice): over a third
- % change compared to vehicle (CD11b+Ly6Chigh profibrotic myeloid cells) ([11]; 7 mg/kg po twice/day): −11.5%
- % of viable cells (CD11b+Ly6Chigh profibrotic myeloid cells) ([11]; 7 mg/kg po twice/day): 6.49%
- % change compared to vehicle (CD11b+Ly6Chigh profibrotic myeloid cells) ([11]; 20 mg/kg po twice/day): −26.9%
- % of viable cells (CD11b+Ly6Chigh profibrotic myeloid cells) ([11]; 20 mg/kg po twice/day): 5.36%
- effect on recruitment of profibrotic myeloid cells compared with vehicle ([11]; both doses): little, if any, statistically significant effect
- effect on Mpeg1 mRNA level [12]: No effects
- Lgals3 mRNA level [13, 21]: 0.95
- effect on the level of Lgals3 mRNA [13, 22]: no significant effect
- reduction in inflammatory infiltrates compared to vehicle (H & E staining) [14]: ~50%
- reduction in macrophage infiltration compared to vehicle (F4/80 staining) [15]: ~50%
- effect on IL-6 mRNA level [16]: No effects
- % change compared to vehicle (CD11b+Ly6Clow anti-fibrotic myeloid cells) ([17]; 7 mg/kg po twice/day): −16.5%
- % of viable cells (CD11b+Ly6Clow anti-fibrotic myeloid cells) ([17]; 7 mg/kg po twice/day): 22.7%
- % change compared to vehicle (CD11b+Ly6Clow anti-fibrotic myeloid cells) ([17]; 20 mg/kg po twice/day): −27.9%
- % of viable cells (CD11b+Ly6Clow anti-fibrotic myeloid cells) ([17]; 20 mg/kg po twice/day): 19.6* %
- inhibition of recruitment of anti-fibrotic myeloid cells compared with vehicle ([17]; higher dose of benserazide, statistically significant): 27.9%

SMILES: C[C@]12C=CC(=O)C=C1CC[C@@H]1[C@@H]2C(=O)C[C@@]2(C)[C@H]1CC[C@]2(O)C(=O)CO [Prednisone, prednisone]
- effect on T cells in DMD patients [18]: reduction in T cells
- effect on eosinophil infiltration [19]: reduce eosinophil infiltration
